The text below walks through data of the METLIN SMRT retention time set (Domingo-Almenara et al. 2019).

A short description of the series: gradient 5% acetonitrile 3 min, to 50% in 2 min, to 85% in 15 min, held 3 min, 100 µL/min. Particulars: column: Zorbax Extend-C18 2.1 x 50 mm; eluents: water / acetonitrile, 0.1% formic acid. In a few lines:
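Data were gathered over 3 months by HPLC coupled to a quadrupole time-of-flight mass spectrometer, operated in positive and negative ionization mode. Mixtures of ~100 pure standards ran on a Zorbax Extend-C18 column (2.1 × 50 mm, 1.8 μm) at 100 μL/min, with water and acetonitrile each containing 0.1% formic acid and dead and dwell volumes of 40 μL and 900 μL. Retention time was read from adduct peaks picked by computer and checked manually.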
Take `CCCN(CCC)C(=O)C1CCCN(c2ccc(-c3ccc(C)cc3)nn2)C1` (centres undefined): the RP-LC retention time stood at 826 s.
With `O=C(CCn1cnc2cc(-c3noc(-c4cncc(Br)c4)n3)ccc21)N1CCCCC1` the figure was 782 s.
In the case of `Cc1ccc(NC(=O)N2CCC(n3cnc4cccnc43)CC2)c(Cl)c1`, the RP-LC retention time was determined as 676 s.
For `CCOc1ccc(S(=O)(=O)N2CCC(C(=O)N(CC)CC)CC2)cc1C`, the RP-LC retention time was 934 s.
As for `CCCC(=O)Nc1nc2ccc(CCC(=O)Nc3cccc(C(=O)OCC)c3)cc2s1`, the RP-LC retention time came out at 950 s.
The value for `CCCCN(C)S(=O)(=O)c1cc(-c2nnc(C3CCCC3)o2)co1` was 1060 s; that for `COCCCNC(=O)c1ccc(-n2nc(Sc3ccc(Cl)cc3)ccc2=O)cc1` was 863 s.
In turn, `CCCN(Cc1ccc(OC)cc1)Cc1cc(=O)n2ccc(C)cc2n1` came in with an RP-LC retention time of 628 s.
The value for `Cc1cnn(CC(=O)N2CCCn3ccnc3C2C2CCCC2)c1` (centres undefined) was 597 s; that for `Cc1ccc(C(=O)N2C[C@@H](Oc3ccccc3)C[C@H]2C(=O)NC2CC2)s1` was 790 s; that for `O=C(c1cc(-c2ccccn2)n[nH]1)N1CCCC(C(=O)N2CCc3ccccc32)C1` (centres undefined) was 713 s.
Regarding `CS(=O)(=O)c1nc2ccc(NS(=O)(=O)c3ccc4c(c3)OCCO4)cc2s1`, the RP-LC retention time came to 792 s.
The value for `O=C(Nc1cc(Cl)ccc1F)C1CC(=O)N(c2ccc3c(c2)CCN3C(=O)C2CC2)C1` (centres undefined) was 835 s.
The value for `CN(Cc1nc2cc(C(=O)N3CCCC3)ccc2n1C)C(=O)Nc1cccc(Br)c1` was 665 s; that for `CCC(C)NC(=O)C1CCCN(c2nnc(C)c3c(C)n(-c4ccc(Cl)cc4)nc23)C1` (centres undefined) was 746 s.
With `COc1ccc(CCc2nc3nccc(-c4ccsc4)n3n2)cc1`, the RP-LC retention time was found to be 946 s.
The molecule `Cc1cc(C)c(-c2nnc(NC(=O)c3ccccc3Br)s2)c(C)c1` registered an RP-LC retention time of 988 s.
`Cc1ccccc1OCc1nc(-c2cccc(-c3ccn[nH]3)c2)no1` gave an RP-LC retention time of 1020 s.
The value for `Cc1ccccc1-c1nc2cnccn2c1NCCC(=O)NCc1cccc(Cl)c1` was 717 s; that for `COc1ccccc1-c1noc(Cn2ncn3nc(-c4ccc(Br)cc4)cc3c2=O)n1` was 1110 s.
Turning to `CN(C)c1ccc(-c2nc3cnc(Br)cn3c2Nc2ccc3c(c2)OCCO3)cc1`, the RP-LC retention time worked out at 881 s.
The value for `Cc1ccc(CNC(=O)N2CC=C(c3cn(C(C)C)c4ncccc34)CC2)cc1` was 958 s; that for `CCc1nnc(-c2cc(C)n(CC(=O)Nc3cccc(SC)c3)c2C)o1` was 846 s.
For the molecule `Cc1cc(Nc2ncccc2S(N)(=O)=O)ccc1F`, the RP-LC retention time was found to be 820 s.
The value for `CCN1C(=O)C2CCC(=O)N2c2ccc(C(=O)NCc3ccco3)cc21` (centres undefined) was 674 s.
In turn, `Clc1ccc(-c2cc3c(N4CCN(c5ccccn5)CC4)nccn3n2)cc1` showed an RP-LC retention time of 727 s.
The value for `Cc1ccc2c(Sc3ccc(Cl)cc3)c(C(=O)N3CCN(c4ccccn4)CC3)[nH]c2c1` was 894 s.
With `COCc1c(C(=O)O)nnn1-c1cc(C)ccc1F` the figure was 708 s; with `O=C(NCc1cccc(Br)c1)C1CCN(c2nnc(-c3ccccc3)o2)CC1`, 885 s; with `CCC(C(=O)N1CCN(c2ccccn2)CC1)n1nc(C)c2sc3ccccc3c2c1=O` (centres undefined), 705 s.
With `CCN(CC)C(=O)c1cc(NS(=O)(=O)c2ccc(C(C)(C)C)cc2)cnc1N1CCNCC1` the figure was 680 s.
On to `CCCN(CCc1ccccc1)C1CCc2c(O)cccc2C1` (centres undefined), for which the RP-LC retention time stood at 768 s.
With `COc1cccc(-n2c(=O)c(C(=O)Nc3cccc(F)c3)c(O)c3cccnc32)c1` the figure was 1250 s.
Regarding `COc1ccc(CN2C=C(C(=O)OCc3nc(-c4ccccc4F)no3)C(C)=NS2(=O)=O)cc1`, the RP-LC retention time was 1060 s.
With `COc1ccc(S(=O)(=O)N2CCC(c3nc(C(=O)N4CCCC4)c(C)o3)CC2)cc1` the figure was 871 s; with `Cc1ccc(NC(=O)N2CCc3nc(-c4ccc(Cl)cc4)ncc3C2)cc1`, 783 s; with `O=C(c1ccc(Br)o1)N1CCN(Cc2nnnn2-c2ccc(F)cc2)CC1`, 776 s.
The value for `Cc1ccc(C)c(NC(=O)c2csc(-c3ccc(N4CCCC4)nc3)n2)c1` was 830 s.
`COc1ccccc1NC(=O)N1CCC(c2cc(N)on2)CC1`: the RP-LC retention time was determined as 678 s.
The value for `COc1ccccc1CNC(=O)CSc1cc(N2CCN(c3ccccc3OC)CC2)ncn1` was 888 s.
`Cc1ccccc1-c1nnc(COc2ccc(NC(=O)c3ccoc3)cc2)o1` had an RP-LC retention time of 872 s.
With `COc1ccc(C)cc1NS(=O)(=O)c1cc2c(s1)CCN(C(=O)C1CC1)C2` the figure was 839 s; with `CC1(C(=O)NC2CCCCCC2)CN(S(C)(=O)=O)CC(=O)N1c1cccc(Cl)c1` (centres undefined), 882 s; with `COC(=O)c1cc(S(=O)(=O)N2CCCC2C(=O)Nc2ccc(F)cc2)cn1C` (centres undefined), 830 s.
With `COc1ccc(NC(=O)Cn2nc(C(=O)N3CCCC3)c3ccccc32)cc1` the figure was 800 s; with `COc1cc(NC(=O)CN2C(=O)CCn3nc(-c4cn(C)c5ccccc45)cc32)cc(OC)c1`, 822 s.
The value for `Cc1ccc(CNC(=O)N2CCCC(C)(C(=O)NCc3ccccc3C)C2)cc1` (centres undefined) was 916 s; that for `c1cc(-c2nc(-c3ccc(-c4csc(C5CC5)n4)cc3)no2)ccn1` was 1290 s; that for `COCCCNC(=O)c1csc(N2CCN(c3ccc(F)cc3)CC2)n1` was 915 s.
For `COc1ccc(NC(=O)C2(C)Oc3cccnc3N(C)C2=O)cc1Cl` (centres undefined), the RP-LC retention time stood at 842 s.
Consider `Cc1cccc(CN2CCC(CNC(=O)C3CCCN(c4nccc(C)n4)C3)CC2)c1` (centres undefined), for which the RP-LC retention time amounted to 615 s.
The value for `Cc1cc(=O)n(CC(=O)Nc2ccc(Br)cc2F)c(N(C)Cc2ccccc2)n1` was 862 s.
As for `COc1ccc(OC)c(NC(=O)CSC2CCc3ccccc3NC2=O)c1` (centres undefined), the RP-LC retention time came out at 797 s.
The molecule `O=C(OCn1nnc2ccccc2c1=O)c1ccccc1[N+](=O)[O-]` registered an RP-LC retention time of 1030 s.
`CC(C)CN1CCn2cc(C(=O)NC3CCCCC3)nc2C1` returned an RP-LC retention time of 600 s.
The molecule `COc1ccc(OC)c(S(=O)(=O)N2CCN(c3ccccn3)CC2)c1` yielded an RP-LC retention time of 594 s.
The molecule `COc1ccc(-c2nc(C)cc(C)c2CNC(=O)c2ccc(Br)o2)cc1` came in with an RP-LC retention time of 634 s.
The value for `CN(CCc1noc(-c2ccc(C(=O)N3CCCCC3)cc2)n1)C(=O)c1ccc2c(c1)OCO2` was 779 s; that for `COCC(C)(O)CNC(=O)c1cc(Cl)ccc1Cl` (centres undefined) was 657 s.
In turn, `O=C(Nc1cc(F)ccc1F)N1CCC(N2CCN(Cc3ccc(F)cc3)C2=O)CC1` showed an RP-LC retention time of 850 s.
The value for `O=C(Nc1ccccc1C(F)(F)F)N1CCC(n2cnnc2C2CC2)C1` (centres undefined) was 640 s; that for `O=C(c1ccsc1)N1CCCC(c2nc(-c3ccccc3)n[nH]2)C1` (centres undefined) was 716 s.
The value for `O=C(NCc1csc(-c2ccccc2)n1)C1CCN(C(=O)Nc2ccccc2)CC1` was 766 s.
For `Cc1cccc(-c2nnc(-c3cccc(S(=O)(=O)N4CCCCCC4)c3)o2)c1`, the RP-LC retention time came out at 1190 s.
The value for `O=C(CCc1csc(NC(=O)NC2CCCCC2)n1)NCCC1=CCCCC1` was 843 s; that for `COc1ccccc1N1CCN(c2cc(SCC(=O)Nc3cc(C)ccc3C)ncn2)CC1` was 1070 s.
With `Cc1cc(N(CCO)CCO)n2nc(-c3ccc(C(C)(C)C)cc3)nc2n1` the figure was 687 s; with `CNc1nc(Nc2ccccc2Cl)nc2ccccc12`, 683 s.
The value for `Cc1ccc(-n2c(=O)n(CC(=O)Nc3cccc(C)c3C)c3cccnc32)cc1` was 907 s.
With `Cc1cccc(NS(=O)(=O)c2ccc3c(c2)C(=O)N(C)c2ncccc2O3)c1C`, the RP-LC retention time was 970 s.
With `Cc1ccc(NS(=O)(=O)c2ccc(-c3c(C)noc3C)cc2)cc1C` the figure was 996 s; with `CCn1cc(-c2ccncc2)cc1C(=O)NCc1ccc(N(C)C)cc1`, 559 s.
With `O=C(NCCCOc1cccc2cccnc12)c1cc(=O)c2ccccc2o1` the figure was 648 s.
With `CCn1nc(C)c(CCNC(=O)c2cc3c(=O)n(CCOC)ccc3nc2C)c1C` the figure was 576 s; with `O=C(Cc1cccc(F)c1)N1CCN(C(=O)c2nnn3c2COC(c2ccccc2)C3)CC1` (centres undefined), 854 s.
With `Cc1[nH]ncc1CNC(=O)C1CCN(C(=O)c2ncn3c2COC(c2ccc(F)cc2)C3)CC1` (centres undefined), the RP-LC retention time came out at 626 s.
With `CCOCCCNC(=O)c1ccc(Oc2nccnc2N2CCC(C)CC2)cc1` the figure was 1030 s; with `Cc1cccc(NC(=O)Nc2nc(C)c(C(=O)NC3CCCC3)s2)c1`, 812 s; with `Cc1ccc(-c2nc(Cn3c(C)nc4onc(C)c4c3=O)c(C)o2)cc1`, 1170 s.
